Laboratory results as given in paper PMC6968383, “Design, synthesis, in vitro and in vivo evaluation of benzylpiperidine-linked 1,3-dimethylbenzimidazolinones as cholinesterase inhibitors against Alzheimer’s disease” (Journal of Enzyme Inhibition and Medicinal Chemistry, 2019).
Where two headings read alike, the source gives them in different places.

Assays:
[1] = molecular target: T1, AChE (EC 3.1.1.7) from electric eel (Electrophorus electricus, UniProt O42275); experiment: biochemical; assay type: biochemical; conditions: for inhibition at 100 µM: read-out: AChE IR (inhibitory rate); for SI (selectivity index = AChE IC50/BChE IC50): eeAChE IC50 / eqBChE IC50
T1 construct: purchased Sigma-Aldrich
Description: (§1) The data were expressed as IC50 values (Table 1).
(§2) The inhibitory activities of the target compounds towards AChE (from Electrophorus electricus (electric eeAChE, Sigma-Aldrich) and horse serum BChE (eqBChE, Sigma-Aldrich) or human AChE – huAChE; human BuChE – huBuChE (huAChE, huBuChE, Sigma-Aldrich) were measured by Ellman’s method. In 96-well plates, a mixture of phosphate buffer (0.1 M, pH 8.0, […]), 5,5′-dithiobis-2-nitrobenzoic acid (DTNB, 60 µL), acetylcholinestrase or butyrylcholinesterase (20 µL, 5 IU/mL) and different concentration of the compound solution (30 µL) was pre-incubated for 5 min followed by the addition of the substrate (acetylthiocholine iodide or butyrylthiocholine iodide, 20 µL). […] The measurement of each concentration for each compound was detected in triplicate. GraphPad Prism 6.0 (GraphPad Software, Inc., La Jolla, CA) was used for data processing. The inhibition curve was fitted by plotting percentage enzyme activity (100% for the reference) versus the logarithm of the concentration of tested compound. The half-maximal inhibitory concentration (IC50) values were calculated according to the inhibition curve and the data were shown in the layout of mean ± SEM by GraphPad Prism 6.0.

[2] = molecular target: T2, BChE (EC 3.1.1.8) from horse serum (Equus caballus, UniProt P81908); experiment: biochemical; conditions: for inhibition at 100 µM: compound at 100 μM, read-out: BChE IR (inhibitory rate)
T2 construct: horse serum BChE (eqBChE, Sigma-Aldrich); purchased Sigma-Aldrich; host or cells: horse serum
Description: as §1, §2

[3] = eeAChE, mean ± SEM of triplicate independent experiments, read-out: AChE IC50
[4] = eqBChE, mean ± SEM of triplicate independent experiments, read-out: BChE IC50

T1 sequence (O42275 24-633): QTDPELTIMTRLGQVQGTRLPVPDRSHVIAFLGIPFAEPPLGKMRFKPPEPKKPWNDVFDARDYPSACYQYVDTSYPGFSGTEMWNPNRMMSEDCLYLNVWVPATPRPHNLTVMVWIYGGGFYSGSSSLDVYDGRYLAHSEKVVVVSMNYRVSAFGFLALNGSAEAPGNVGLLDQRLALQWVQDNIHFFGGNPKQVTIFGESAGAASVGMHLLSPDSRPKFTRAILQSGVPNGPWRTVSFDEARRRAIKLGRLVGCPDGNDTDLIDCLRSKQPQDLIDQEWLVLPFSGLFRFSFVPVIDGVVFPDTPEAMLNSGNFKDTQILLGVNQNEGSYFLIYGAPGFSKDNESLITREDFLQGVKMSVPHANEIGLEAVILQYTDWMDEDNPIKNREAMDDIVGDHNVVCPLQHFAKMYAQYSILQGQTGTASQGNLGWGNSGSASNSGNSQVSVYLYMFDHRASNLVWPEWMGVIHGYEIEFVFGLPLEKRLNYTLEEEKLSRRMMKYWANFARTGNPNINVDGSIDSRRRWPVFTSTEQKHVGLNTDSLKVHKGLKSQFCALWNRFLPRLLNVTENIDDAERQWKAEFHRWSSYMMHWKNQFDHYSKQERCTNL
T2 sequence (P81908 whole entry): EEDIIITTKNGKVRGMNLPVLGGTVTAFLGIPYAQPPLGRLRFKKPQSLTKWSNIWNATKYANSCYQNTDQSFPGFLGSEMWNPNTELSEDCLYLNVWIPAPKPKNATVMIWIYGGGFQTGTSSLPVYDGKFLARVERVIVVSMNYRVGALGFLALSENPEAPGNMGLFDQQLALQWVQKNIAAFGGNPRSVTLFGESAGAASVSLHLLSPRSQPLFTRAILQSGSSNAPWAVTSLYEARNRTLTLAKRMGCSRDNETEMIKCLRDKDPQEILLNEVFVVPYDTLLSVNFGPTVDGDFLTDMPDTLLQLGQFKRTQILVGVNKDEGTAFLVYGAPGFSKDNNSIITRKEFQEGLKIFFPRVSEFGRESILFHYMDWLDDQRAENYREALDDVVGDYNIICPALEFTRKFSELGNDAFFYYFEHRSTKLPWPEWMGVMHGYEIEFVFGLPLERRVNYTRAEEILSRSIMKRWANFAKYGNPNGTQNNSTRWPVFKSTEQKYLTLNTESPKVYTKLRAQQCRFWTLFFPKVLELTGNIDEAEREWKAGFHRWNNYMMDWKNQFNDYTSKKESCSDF

Compound	IC50 [1, 3]	inhibition at 100 µM ([2]; eqBChE)	also measured
Cn1c(=O)n(C)c2cc(C(=O)NCC3CCN(Cc4ccccc4)CC3)ccc21 [Compound 9a, N-((1-benzylpiperidin-4-yl)methyl)-1,3-dimethyl-2-oxo-2,3-dihydro-1H-benzo[d]imidazole-5-carboxamide]	3.14 ± 1.12 µM	43.9%	–
Cc1ccccc1CN1CCC(CNC(=O)c2ccc3c(c2)n(C)c(=O)n3C)CC1 [Compound 9b, 1,3-dimethyl-N-((1–(2-methylbenzyl)piperidin-4-yl)methyl)-2-oxo-2,3-dihydro-1H-benzo[d]imidazole-5-carboxamide]	8.08 ± 2.66 µM	41.4%	–
Cc1cccc(CN2CCC(CNC(=O)c3ccc4c(c3)n(C)c(=O)n4C)CC2)c1 [Compound 9c, 1,3-dimethyl-N-((1–(3-methylbenzyl)piperidin-4-yl)methyl)-2-oxo-2,3-dihydro-1H-benzo[d]imidazole-5-carboxamide]	3.83 ± 2.04 µM	44%	–
Cc1ccc(CN2CCC(CNC(=O)c3ccc4c(c3)n(C)c(=O)n4C)CC2)cc1 [Compound 9d, 1,3-dimethyl-N-((1–(4-methylbenzyl)piperidin-4-yl)methyl)-2-oxo-2,3-dihydro-1H-benzo[d]imidazole-5-carboxamide]	25.7 ± 12.3 µM	37.8%	–
Cc1ccc(CN2CCC(CNC(=O)c3ccc4c(c3)n(C)c(=O)n4C)CC2)cc1C [Compound 9e, N-((1–(3,4-dimethylbenzyl)piperidin-4-yl)methyl)-1,3-dimethyl-2-oxo-2,3-dihydro-1H-benzo[d]imidazole-5-carboxamide]	9.97 ± 2.52 µM	30.8%	–
COc1cccc(CN2CCC(CNC(=O)c3ccc4c(c3)n(C)c(=O)n4C)CC2)c1 [Compound 9f, N-((1–(3-methoxybenzyl)piperidin-4-yl)methyl)-1,3-dimethyl-2-oxo-2,3-dihydro-1H-benzo[d]imidazole-5-carboxamide]	–	25%	inhibition at 100 µM [1]: 33.5%
COc1ccc(CN2CCC(CNC(=O)c3ccc4c(c3)n(C)c(=O)n4C)CC2)cc1 [Compound 9g, N-((1–(4-methoxybenzyl)piperidin-4-yl)methyl)-1,3-dimethyl-2-oxo-2,3-dihydro-1H-benzo[d]imidazole-5-carboxamide]	5.17 ± 2.25 µM	41.5%	–
Cn1c(=O)n(C)c2cc(C(=O)NCC3CCN(Cc4ccccc4F)CC3)ccc21 [Compound 9h, N-((1–(2-fluorobenzyl)piperidin-4-yl)methyl)-1,3-dimethyl-2-oxo-2,3-dihydro-1H-benzo[d]imidazole-5-carboxamide]	16.2 ± 4.34 µM	30%	–
Cn1c(=O)n(C)c2cc(C(=O)NCC3CCN(Cc4cccc(F)c4)CC3)ccc21 [Compound 9i, N-((1–(3-fluorobenzyl)piperidin-4-yl)methyl)-1,3-dimethyl-2-oxo-2,3-dihydro-1H-benzo[d]imidazole-5-carboxamide]	2.93 ± 1.96 µM	–	IC50 [2, 4]: 95.1 ± 59.3 µM
Cn1c(=O)n(C)c2cc(C(=O)NCC3CCN(Cc4ccc(F)cc4)CC3)ccc21 [Compound 9j, N-((1–(4-fluorobenzyl)piperidin-4-yl)methyl)-1,3-dimethyl-2-oxo-2,3-dihydro-1H-benzo[d]imidazole-5-carboxamide]	4.7 ± 2.01 µM	–	SI (selectivity index = AChE IC50/BChE IC50) [1]: 1.27; IC50 [2, 4]: 3.71 ± 1.88 µM
Cn1c(=O)n(C)c2cc(C(=O)NCC3CCN(Cc4ccccc4Cl)CC3)ccc21 [Compound 9k, N-((1–(2-chlorobenzyl)piperidin-4-yl)methyl)-1,3-dimethyl-2-oxo-2,3-dihydro-1H-benzo[d]imidazole-5-carboxamide]	3.92 ± 1.2 µM	46.5%	–
Cn1c(=O)n(C)c2cc(C(=O)NCC3CCN(Cc4cccc(Cl)c4)CC3)ccc21 [Compound 9l, N-((1–(3-chlorobenzyl)piperidin-4-yl)methyl)-1,3-dimethyl-2-oxo-2,3-dihydro-1H-benzo[d]imidazole-5-carboxamide]	6 ± 3.31 µM	36.9%	–
Cn1c(=O)n(C)c2cc(C(=O)NCC3CCN(Cc4ccc(Cl)cc4)CC3)ccc21 [Compound 9m, N-((1–(4-chlorobenzyl)piperidin-4-yl)methyl)-1,3-dimethyl-2-oxo-2,3-dihydro-1H-benzo[d]imidazole-5-carboxamide]	0.21 ± 0.03 µM	49.9%	fold increase of inhibitory activity towards AChE compared to 9a ([1]; eeAChE): 15 fold
Cn1c(=O)n(C)c2cc(C(=O)NCC3CCN(Cc4ccccc4Br)CC3)ccc21 [Compound 9n, N-((1–(2-bromobenzyl)piperidin-4-yl)methyl)-1,3-dimethyl-2-oxo-2,3-dihydro-1H-benzo[d]imidazole-5-carboxamide]	8.87 ± 4.56 µM	43.5%	–
Cn1c(=O)n(C)c2cc(C(=O)NCC3CCN(Cc4cccc(Br)c4)CC3)ccc21 [Compound 9o, N-((1–(3-bromobenzyl)piperidin-4-yl)methyl)-1,3-dimethyl-2-oxo-2,3-dihydro-1H-benzo[d]imidazole-5-carboxamide]	3.69 ± 1.83 µM	42.8%	–
Cn1c(=O)n(C)c2cc(C(=O)NCC3CCN(Cc4ccc(Br)cc4)CC3)ccc21 [Compound 9p, N-((1–(4-bromobenzyl)piperidin-4-yl)methyl)-1,3-dimethyl-2-oxo-2,3-dihydro-1H-benzo[d]imidazole-5-carboxamide]	11.1 ± 6.42 µM	38.5%	–
COc1ccc(CN2CCC(CNC(=O)c3ccc4[nH]ccc4c3)CC2)cc1 [Compound 11a, N-((1–(4-methoxybenzyl)piperidin-4-yl)methyl)-1H-indole-5-carboxamide]	–	–	IC50 [1]: 38.1 ± 12.8 µM; SI (selectivity index = AChE IC50/BChE IC50) [1]: 3.54; IC50 [2]: 10.8 ± 5.55 µM
COc1ccc(CN2CCC(CNC(=O)c3ccc4[nH]ncc4c3)CC2)cc1 [Compound 11b, N-((1–(4-methoxybenzyl)piperidin-4-yl)methyl)-1H-indazole-5-carboxamide]	–	44.6%	inhibition at 100 µM [1]: 48.6%
O=C(NCC1CCN(Cc2ccccc2Cl)CC1)c1ccc2[nH]ncc2c1 [Compound 11c, N-((1–(2-chlorobenzyl)piperidin-4-yl)methyl)-1H-indazole-5-carboxamide]	–	–	IC50 [1]: 5.44 ± 2.22 µM; SI (selectivity index = AChE IC50/BChE IC50) [1]: 0.26; IC50 [2]: 21.3 ± 5 µM
COc1ccc(CN2CCC(CNC(=O)c3ccc4[nH]cnc4c3)CC2)cc1 [Compound 11d, N-((1–(4-methoxybenzyl)piperidin-4-yl)methyl)-1H-benzo[d]imidazole-5-carboxamide]	–	16.5%	inhibition at 100 µM [1]: 18.8%
O=C(NCC1CCN(Cc2ccccc2Cl)CC1)c1ccc2[nH]cnc2c1 [Compound 11e, N-((1–(2-chlorobenzyl)piperidin-4-yl)methyl)-1H-benzo[d]imidazole-5-carboxamide]	–	42.1%	IC50 [1]: 7.48 ± 3.1 µM
O=C(NCC1CCN(Cc2ccccc2)CC1)c1ccc2[nH]nnc2c1 [Compound 11f, N-((1-benzylpiperidin-4-yl)methyl)-1H-benzo[d][1,2,3]triazole-5-carboxamide]	–	43.1%	IC50 [1]: 0.46 ± 0.4 µM
Cn1c(=O)n(C)c2cc(S(=O)(=O)NCC3CCN(Cc4ccccc4)CC3)ccc21 [Compound 15a, N-((1-benzylpiperidin-4-yl)methyl)-1,3-dimethyl-2-oxo-2,3-dihydro-1H-benzo[d]imidazole-5-sulphonamide]	0.38 ± 0.08 µM	–	SI (selectivity index = AChE IC50/BChE IC50) [1]: 0.84; IC50 [2, 4]: 0.45 ± 0.02 µM
Cc1cccc(CN2CCC(CNS(=O)(=O)c3ccc4c(c3)n(C)c(=O)n4C)CC2)c1 [Compound 15c, 1,3-dimethyl-N-((1–(3-methylbenzyl)piperidin-4-yl)methyl)-2-oxo-2,3-dihydro-1H-benzo[d]imidazole-5-sulphonamide]	0.54 ± 0.14 µM	–	SI (selectivity index = AChE IC50/BChE IC50) [1]: 1.14; IC50 [2, 4]: 0.47 ± 0.17 µM
Cc1ccc(CN2CCC(CNS(=O)(=O)c3ccc4c(c3)n(C)c(=O)n4C)CC2)cc1 [Compound 15d, 1,3-dimethyl-N-((1–(4-methylbenzyl)piperidin-4-yl)methyl)-2-oxo-2,3-dihydro-1H-benzo[d]imidazole-5-sulphonamide]	24.8 ± 3.48 µM	–	SI (selectivity index = AChE IC50/BChE IC50) [1]: 0.24; IC50 [2, 4]: 100 ± 22.1 µM
COc1cccc(CN2CCC(CNS(=O)(=O)c3ccc4c(c3)n(C)c(=O)n4C)CC2)c1 [Compound 15e, N-((1–(3-methoxybenzyl)piperidin-4-yl)methyl)-1,3-dimethyl-2-oxo-2,3-dihydro-1H-benzo[d]imidazole-5-sulphonamide]	9.35 ± 2.32 µM	–	SI (selectivity index = AChE IC50/BChE IC50) [1]: 0.45; IC50 [2, 4]: 20.3 ± 3.08 µM
Cn1c(=O)n(C)c2cc(S(=O)(=O)NCC3CCN(Cc4cccc(F)c4)CC3)ccc21 [Compound 15f, N-((1–(3-fluorobenzyl)piperidin-4-yl)methyl)-1,3-dimethyl-2-oxo-2,3-dihydro-1H-benzo[d]imidazole-5-sulphonamide]	1.04 ± 0.48 µM	–	SI (selectivity index = AChE IC50/BChE IC50) [1]: 0.75; IC50 [2, 4]: 1.37 ± 0.74 µM
